US8603737B2, “Methods for identifying HCV protease inhibitors” (priority 2008, dated 2013)

Columns and labels:
[1] = target: T1, R155K mutant of the HCV NS3/4A 1b protease enzyme (Hepatitis C virus genotype 1b, UniProt P26663, R1181K); experiment: HCV protease FRET assay, R155K mutant; format: biochemical; conditions: read-out: Inhibition, HCV R155K (IC50)
T1 construct: 10× stocks of NS3/4A protease enzyme from Bioenza; purchased Bioenza (Mountain View, Calif.)
Source text: HCV Protease FRET Assay for WT and Mutated NS3/4A 1b Enzymes (IC50 —APP)
The following protocol was used to generate “apparent” IC50 (IC50—APP)) values as depicted in Table 3, below. Without wishing to be bound by any particular theory, it is believed that IC50—APP, contrasted with IC50 values, may provide a more useful indication of time-dependent inhibition, and are thus more representative of binding affinity. The protocol is a modified FRET-based assay (v—03) developed to evaluate compound potency, rank-order and resistance profiles against wild type and C159S, A156S, A156T, D168A, D168V, R155K mutants of the HCV NS3/4A 1b protease enzyme as follows: 10× stocks of NS3/4A protease enzyme from Bioenza (Mountain View, Calif.) and 1.13×5-FAM/QXL™520 FRET peptide substrate from Anaspec (San Jose, Calif.) were prepared in 50 mM Tris-HCl, pH 7.5, 5 mM DTT, 2% CHAPS and 20% glycerol. 5 μL of each enzyme were added to Corning (#3575) 384-well, black, microtiter plates (Corning, N.Y.) after spotting a 0.5 μL volume of 50% DMSO and serially diluted compounds prepared in 50% DMSO. Protease reactions were immediately started after enzyme addition with the addition of 45 μL of the FRET substrate and monitored for 60-90 minutes at λex485/λem520 in a Synergy^4 plate reader from BioTek (Winooski, Vt.). […]

[2] = target: T2, D168V mutant of the HCV NS3/4A 1b protease enzyme (Hepatitis C virus genotype 1b, UniProt P26663, D1194V); experiment: HCV protease FRET assay, D168V mutant; format: biochemical; conditions: read-out: Inhibition, HCV D168V (IC50)
T2 construct: 10× stocks of NS3/4A protease enzyme from Bioenza; purchased Bioenza (Mountain View, Calif.)
Protocol: (§1) HCV Protease FRET Assay for Mutated NS3/4A 1b Enzymes
(§2) The protocol is a modified FRET-based assay (v—02) from In Vitro Resistance Studies of HCV Serine Protease Inhibitors, 2004, JBC, vol. 279, No. 17, pp 17508-17514. Inherent potency of compounds was assessed against A156S, A156T, D168A, and D168V mutants of the HCV NS3/4A 1b protease enzyme as follows:
(§3) Assay buffer: 2% CHAPS, 50 mM Tris pH 7.5, 50% glycerol, 2 μM M-2235 (Bachem) substrate. In a 50 μl reaction, add 49 μl assay buffer, 1 μl (1 U) HCV serine protease (Bioenza). Incubate 20 minutes at room temperature. The plate was read at either 350/460 nm (excitation/emission) on a fluorescent micro-plate reader or monitored at one-minute intervals to achieve the kinetic curve.
10× stocks of NS3/4A protease enzyme from Bioenza (Mountain View, Calif.) and 1.13×5-FAM/QXL™520 FRET peptide substrate from Anaspec (San Jose, Calif.) were prepared in 50 mM HEPES, pH 7.8, 100 mM NaCl, 5 mM DTT and 20% glycerol. 5 μL of each enzyme were pre-incubated in a Corning (#3573) 384-well, black, non-treated microtiter plate (Corning, N.Y.) for 30 min at 25° C. with a 0.5 μL volume of 50% DMSO and serially diluted compounds prepared in 50% DMSO. Protease reactions were started with the addition of 45 μL of the FRET substrate and monitored for 120 minutes at λex487/λem514 through Quad^4 monochromoters in a Synergy^4 plate reader from BioTek (Winooski, Vt.). […] Initial velocity (0 minutes to 30+ minutes) from each reaction was determined from the slope of a plot of relative fluorescence units vs time (minutes) and then plotted against inhibitor concentration to estimate IC50 from log[Inhibitor] vs Response, Variable Slope model in GraphPad Prism from GraphPad Software (San Diego, Calif.). […]
The following protocol was used to generate “apparent” IC50 (IC50—APP)) values as depicted in Table 3, below. […] Protease reactions were immediately started after enzyme addition with the addition of 45 μL of the FRET substrate and monitored for 60-90 minutes at λex485/λem520 in a Synergy^4 plate reader from BioTek (Winooski, Vt.). […]

[3] = test system: HCV RNA replicon in cell line ET (luc-ubi-neo/ET), human Huh7 hepatoma; experiment: Luciferase reporter replicon assay (Example 5, Method C); format: cell-based; conditions: Hepatitis C virus, Huh-7, 72 hr
Protocol: Method C: Luciferase Reporter Assay Protocol
The compounds were assayed to evaluate the antiviral activity and cytotoxicity of compounds using replicon-derived luciferase activity. This assay used the cell line ET (luc-ubi-neo/ET), which is a human Huh7 hepatoma cell line that contains an HCV RNA replicon with a stable luciferase (Luc) reporter and three cell culture-adaptive mutations. The ET cell line was grown in a 5% CO2 incubator at 37° C. in Dulbecco's modified essential media (DMEM), supplemented with 2 mM L-glutamine (“1%”), nonessential amino acids, 100 U of penicillin/mL, 100 μg of streptomycin/mL (“1%”), 10% fetal bovine serum and 400 μg/mL G418 (Geneticin; Invitrogen).
All cell culture reagents were obtained from Invitrogen (Carlsbad). Cells were trypsinized (1% trypsin:EDTA) and plated out at 5×10^3 cells/well in white 96-well assay plates (Costar) dedicated to cell number (cytotoxicity) or antiviral activity assessments. Test compounds were added at six 3-fold serial dilutions each and the assay was run in DMEM, 5% FBS, 1% pen-strep, 1% glutamine, 1% non essential amino acid. Human interferon alpha-2b (PBL Biolabs, New Brunswick, N.J.) was included in each run as a positive control compound. Cells were processed 72 hr post test compound addition when the cells were still subconfluent. Antiviral activity was measured by analyzing replicon-derived luciferase activity using the Steady-Glo Luciferase Assay System (Promega, Madison, Wis.) according to manufacturer's instruction. The number of cells in each well was determined by Cell Titer Blue Assay (Promega). Compound profile was derived by calculating applicable EC50 (effective concentration inhibiting virus replication by 50%), EC90 (effective concentration inhibiting virus replication by 90%), IC50 (concentration decreasing cell viability by 50%) and SI50 (selective index: […]) values.

[4] = target: T3, A156T mutant of the HCV NS3/4A 1b protease enzyme (Hepatitis C virus genotype 1b, UniProt P26663, A1182T); experiment: HCV protease FRET assay, A156T mutant; format: biochemical; conditions: read-out: Inhibition, HCV A156T (IC50)
T3 construct: 10× stocks of NS3/4A protease enzyme from Bioenza; purchased Bioenza (Mountain View, Calif.)
Protocol: as §1, §2, §3
10× stocks of NS3/4A protease enzyme from Bioenza (Mountain View, Calif.) and 1.13×5-FAM/QXL™520 FRET peptide substrate from Anaspec (San Jose, Calif.) were prepared in 50 mM HEPES, pH 7.8, 100 mM NaCl, 5 mM DTT and 20% glycerol. […] Protease reactions were started with the addition of 45 μL of the FRET substrate and monitored for 120 minutes at λex487/λem514 through Quad^4 monochromoters in a Synergy^4 plate reader from BioTek (Winooski, Vt.). […]

Row | Compound | IC50 [1] | IC50 [2] | IC90 ([3]; IC90, read-out: Inhibition, Replicon, IC90 value, Method C) | IC50 ([3]; read-out: Inhibition, Replicon (IC50), Method C) | IC50 [4] | EC90 ([3]; EC90, read-out: Inhibition, Replicon, EC90 value) | EC50 ([3]; read-out: Inhibition, Replicon, EC50 value)
1 | C=CC(=O)N(C)C[C@H](NC(=O)OC(C)(C)C)C(=O)N1C[C@H](OC(=O)N2Cc3cccc(F)c3C2)C[C@H]1C(=O)N[C@]1(C(=O)NS(=O)(=O)C2CC2)C[C@H]1C=C [Compound 4] | 10 to 100 nM | 10 to 100 nM | 10 to 100 nM | < 10 nM | < 10 nM | – | –
2 | C=C[C@@H]1C[C@]1(NC(=O)[C@@H]1C[C@@H](Oc2cc(-c3ccccc3)nc3cc(OC)ccc23)CN1C(=O)C(NC(=O)OC(C)(C)C)[C@@H](C)OC(=O)/C=C/C)C(=O)NS(=O)(=O)C1CC1 (stereo partly shown) [Compound 3] | – | 1000 to 10000 nM | – | – | 100 to 1000 nM | – | –
3 | CC(C)(C)OC(=O)NC1CN(C(=O)CCl)CCC/C=C\[C@@H]2C[C@@]2(C(=O)NS(=O)(=O)C2CC2)NC(=O)[C@@H]2C[C@@H](OC(=O)N3Cc4cccc(F)c4C3)CN2C1=O (stereo partly shown) [Compound 8] | 10 to 100 nM | – | – | – | – | 100 to 1000 nM | 10 to 100 nM
